Data: US20250009745A1, “CDK INHIBITOR” (SHANGHAI QILU PHARMACEUTICAL RESEARCH AND DEVELOPMENT …, priority 2021, published 2025)

Assays:
Experiment in all cases: CDK enzymology experiment in vitro, capillary mobility shift assay (MSA)
Format in all cases: biochemical
CDK2 = biological target: T1, CDK2 (Homo sapiens, UniProt P24941); details: read-out: CDK2 (nM) inhibitory IC50
T1 construct: purchased Carna Company
Experimental: (§1) CDK1/CDK2/CDK4/CDK6/CDK7/CDK9 were purchased from Carna Company; Carliper substrate CTD3/substrate 18/substrate 8 were purchased from Gil Biochemical Company; Dinaciclib/Palbociclib were purchased from Selleckchem Company; DMSO was purchased from Sigma Company; 384-well plates were purchased from Corning Company.
(§2) • (1) Preparation of 1×Kinase buffer. • (2) Preparation of compound concentration gradient: Test concentration of the test compound was started at 1 μM, 10 μM or 30 μM, 3-fold dilution, 10 concentrations, detected in duplicate. The test compound was diluted to a 100-fold final concentration with 100% DMSO solution in a 384 source plate. Liquid handler Echo 550 was used to transfer 250 nL of 100-fold final concentration of the compound to the target plate 384-well plate. […] The 384-well plate was centrifuged at 1000 rpm for 30 seconds, and shaken to mix uniformly. • (10) The conversion rate was read with Caliper EZ Reader.
(§3) Where, conversion %_sample is the readings of conversion rate of the sample; conversion %_min: the average value of negative control wells, representing the readings of conversion rate of wells without enzyme activity; conversion %_max: the average value of positive control wells, representing the readings of conversion rate of wells without compound inhibition.
(§4) Taking the log value of the concentration as the X-axis, and the percentage inhibition rate as the Y-axis, the dose-effect curve was fitted using the log(inhibitor) vs. response—Variable slope of the analysis software GraphPad Prism 5 so as to obtain the IC50 value of each compound on the enzyme activity.
(§5) Y=Bottom+(Top−Bottom)/(1+10^((Log IC50−X)*HillSlope)). Calculation formula: […]

CDK4 = biological target: T2, CDK4 (Homo sapiens, UniProt P11802); details: read-out: CDK4 (nM) inhibitory IC50
T2 construct: purchased Carna Company
T2 sequence (P11802 whole entry): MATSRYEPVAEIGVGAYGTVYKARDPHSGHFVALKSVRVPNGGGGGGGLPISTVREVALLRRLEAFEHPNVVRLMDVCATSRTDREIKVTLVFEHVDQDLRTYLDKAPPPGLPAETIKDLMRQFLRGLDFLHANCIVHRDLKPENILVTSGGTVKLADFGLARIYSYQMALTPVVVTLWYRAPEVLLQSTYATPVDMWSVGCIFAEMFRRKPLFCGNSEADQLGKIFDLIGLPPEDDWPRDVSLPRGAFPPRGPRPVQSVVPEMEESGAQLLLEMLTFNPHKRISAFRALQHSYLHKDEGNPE
T2 sequence (P30281 whole entry partner): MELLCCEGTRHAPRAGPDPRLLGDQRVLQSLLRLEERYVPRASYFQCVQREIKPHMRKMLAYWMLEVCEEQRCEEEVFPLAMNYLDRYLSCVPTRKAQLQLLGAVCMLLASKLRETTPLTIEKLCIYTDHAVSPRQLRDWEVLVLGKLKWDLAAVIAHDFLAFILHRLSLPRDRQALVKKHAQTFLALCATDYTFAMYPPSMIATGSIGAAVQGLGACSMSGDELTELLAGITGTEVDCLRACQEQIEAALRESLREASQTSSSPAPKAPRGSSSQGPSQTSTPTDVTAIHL
Experimental: as §1, §2, §3, §4, §5

CDK6 = biological target: T3, CDK6 (Homo sapiens, UniProt Q00534); details: read-out: CDK6 (nM) inhibitory IC50
T3 construct: purchased Carna Company
T3 sequence (Q00534 whole entry): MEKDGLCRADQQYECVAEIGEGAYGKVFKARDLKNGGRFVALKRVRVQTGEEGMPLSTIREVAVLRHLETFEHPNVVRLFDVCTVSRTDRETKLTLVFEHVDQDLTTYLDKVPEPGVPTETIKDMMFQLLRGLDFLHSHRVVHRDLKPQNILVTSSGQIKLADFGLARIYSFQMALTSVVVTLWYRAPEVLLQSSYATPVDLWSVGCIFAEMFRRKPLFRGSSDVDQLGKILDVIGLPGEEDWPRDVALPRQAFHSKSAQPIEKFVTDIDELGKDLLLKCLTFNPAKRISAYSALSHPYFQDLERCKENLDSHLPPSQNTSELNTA
T3 sequence (P30281 whole entry partner): as the sequence (P30281 whole entry partner) above
Experimental: as §1
as §2, with “The test compound was diluted to a 100-fold final concentration with 100% DMSO solution in a 384 source plate.” left out
as §3, §4, §5

Row | SMILES | IC50 (CDK2) [nM] | IC50 (CDK4) [nM] | IC50 (CDK6) [nM]
1 | N#Cc1cnc(NC2CCN(S(=O)(=O)c3ccc(N4CCOCC4)cc3)CC2)nc1NC1CCCC1 [Compound 94] | 0.5 to 2.5 | 2.5 to 10 | 10 to 50
2 | Cc1cc(S(=O)(=O)N2CCC(Nc3ncc(C(F)(F)F)c(O[C@H]4CCOC4)n3)CC2)ccc1N1CCNCC1 [Compound 171] | < 0.5 | 0.5 to 2.5 | 0.5 to 2.5
3 | N#Cc1cnc(NC2CCN(S(=O)(=O)c3ccc(C4CCNCC4)cc3)CC2)nc1NC1CCCC1 [Compound 101] | 0.5 to 2.5 | 0.5 to 2.5 | 0.5 to 2.5
4 | O=S(=O)(c1ccc(C2CCCNC2)c(F)c1)N1CCC(Nc2ncc(C(F)(F)F)c(O[C@H]3CCOC3)n2)CC1 (stereo partly drawn) [Compound 193] | < 0.5 | 0.5 to 2.5 | 0.5 to 2.5
5 | C[C@@H]1CN(c2ccc(S(=O)(=O)N3CCC(Nc4ncc(C(F)(F)F)c(O[C@H]5CCOC5)n4)CC3)cc2)C[C@H](C)N1 [Example 169] | < 0.5 | 0.5 to 2.5 | 0.5 to 2.5
6 | COc1cc(S(=O)(=O)N2CCC(Nc3ncc(C(F)(F)F)c(O[C@H]4CCOC4)n3)CC2)ccc1C1=CCNCC1 [Compound 194] | 0.5 to 2.5 | 0.5 to 2.5 | 0.5 to 2.5
7 | O=S(=O)(c1ccc(N2CC3CNCC3C2)cc1)N1CCC(Nc2ncc(C(F)(F)F)c(O[C@H]3CCOC3)n2)CC1 (stereo partly drawn) [Compound 191] | < 0.5 | 0.5 to 2.5 | 0.5 to 2.5
8 | O=S(=O)(c1cccc(N2CCNCC2)c1)N1CCC(Nc2ncc(C(F)(F)F)c(O[C@H]3CCOC3)n2)CC1 [Compound 184] | < 0.5 | 2.5 to 10 | 10 to 50
9 | Nc1ccc(S(=O)(=O)N2CCC(Nc3ncc(C(F)(F)F)c(O[C@H]4CCOC4)n3)CC2)cn1 [Compound 123] | < 0.5 | 2.5 to 10 | 10 to 50
10 | O=S(=O)(c1ccc(N2C3CNCC2C3)nc1)N1CCC(Nc2ncc(C(F)(F)F)c(O[C@H]3CCOC3)n2)CC1 [Compound 189] | < 0.5 | 0.5 to 2.5 | 0.5 to 2.5
11 | O=S(=O)(c1ccc(N2CC3CCC(C2)N3)nc1)N1CCC(Nc2ncc(C(F)(F)F)c(O[C@H]3CCOC3)n2)CC1 [Compound 182] | < 0.5 | 0.5 to 2.5 | 0.5 to 2.5
12 | O=S(=O)(c1ccc(C2CCNCC2)cn1)N1CCC(Nc2ncc(C(F)(F)F)c(O[C@H]3CCOC3)n2)CC1 [Compound 177] | < 0.5 | 0.5 to 2.5 | 0.5 to 2.5
13 | CN1CC=C(c2ccc(S(=O)(=O)N3CCC(Nc4ncc(C#N)c(NC5CCCC5)n4)CC3)cc2)CC1 [Example 16, 4-(Cyclopentylamino)-2-((1-((4-(1-methyl-1,2,3,6-tetrahydropyridin-4-yl)phenyl)sulfonyl)piperidin-4-yl)amino)pyrimidine-5-carbonitrile] | 0.5 to 2.5 | 0.5 to 2.5 | 0.5 to 2.5
14 | O=S(=O)(c1ccc(C2=CCNCC2)c(F)c1)N1CCC(Nc2ncc(C(F)(F)F)c(O[C@H]3CCOC3)n2)CC1 [Compound 121] | < 0.5 | 0.5 to 2.5 | 0.5 to 2.5
15 | N#CC1CCN(c2ccc(S(=O)(=O)N3CCC(Nc4ncc(C(F)(F)F)c(O[C@H]5CCOC5)n4)CC3)cc2)CC1 [Compound 143] | 0.5 to 2.5 | 2.5 to 10 | 10 to 50
16 | O=S(=O)(c1ccc(N2CCNCC2)c(F)c1)N1CCC(Nc2ncc(C(F)(F)F)c(O[C@H]3CCOC3)n2)CC1 [Compound 172] | 0.5 to 2.5 | 0.5 to 2.5 | 0.5 to 2.5
17 | C[C@H]1CN(c2ccc(S(=O)(=O)N3CCC(Nc4ncc(C(F)(F)F)c(O[C@H]5CCOC5)n4)CC3)cn2)CCN1 [Compound 188] | < 0.5 | 0.5 to 2.5 | 0.5 to 2.5
18 | O=S(=O)(c1ccc(N2C3CCC2CNC3)cc1)N1CCC(Nc2ncc(C(F)(F)F)c(O[C@H]3CCOC3)n2)CC1 [Compound 195] | < 0.5 | 0.5 to 2.5 | 0.5 to 2.5
19 | C[C@@H]1CN(c2ccc(S(=O)(=O)N3CCC(Nc4ncc(C(F)(F)F)c(O[C@H]5CCOC5)n4)CC3)cn2)CCN1 [Compound 187] | < 0.5 | 0.5 to 2.5 | 0.5 to 2.5

Row | SMILES | IC50 (CDK2) [nM] | IC50 (CDK4) [nM] | IC50 (CDK6) [nM]
20 | Cn1cc(-c2ccc(S(=O)(=O)N3CCC(Nc4ncc(C#N)c(N[C@H]5CC[C@H](O)C5)n4)CC3)cc2)cn1 (single isomer, unassigned) [Compound 83] | 0.5 to 2.5 | 0.5 to 2.5 | 0.5 to 2.5
21 | Cc1cc(S(=O)(=O)N2CCC(Nc3ncc(C(F)(F)F)c(O[C@H]4CCOC4)n3)CC2)ccc1C1=CCCNC1 [Compound 196] | < 0.5 | 0.5 to 2.5 | 0.5 to 2.5
22 | O=S(=O)([C@@H]1CCCNC1)N1CCC(Nc2ncc(C(F)(F)F)c(NC3CCCC3)n2)CC1 [Compound 162] | 2.5 to 10 | 2.5 to 10 | 10 to 50
23 | O=S(=O)(c1cnn(C2CCNCC2)c1)N1CCC(Nc2ncc(C(F)(F)F)c(O[C@H]3CCOC3)n2)CC1 [Compound 119] | < 0.5 | 0.5 to 2.5 | 0.5 to 2.5
24 | CN1CCN(c2ccc(S(=O)(=O)N3CCC(Nc4ncc(C#N)c(NC5CCCC5)n4)CC3)cc2)CC1 [Example 18, 4-(Cyclopentylamino)-2-((1-((4-(4-methylpiperazin-1-yl)phenyl)sulfonyl)piperidin-4-yl)amino)pyrimidine-5-carbonitrile] | 0.5 to 2.5 | 0.5 to 2.5 | 0.5 to 2.5
25 | O=S(=O)(c1ccc(C2=CCNCC2)nc1)N1CCC(Nc2ncc(C(F)(F)F)c(O[C@H]3CCOC3)n2)CC1 [Compound 173] | < 0.5 | 0.5 to 2.5 | 0.5 to 2.5
26 | N#Cc1cnc(NC2CCN(S(=O)(=O)c3ccc(C4CCNCC4)cc3)CC2)nc1NC1CCCC1(F)F (stereo not drawn) [Compound 138] | 0.5 to 2.5 | 0.5 to 2.5 | 0.5 to 2.5
27 | C[C@H]1CN(c2ccc(S(=O)(=O)N3CCC(Nc4ncc(C(F)(F)F)c(O[C@H]5CCOC5)n4)CC3)cc2)CCN1 [Compound 186] | < 0.5 | 0.5 to 2.5 | 0.5 to 2.5
28 | O=S(=O)(c1ccc(C2CNC2)c(F)c1)N1CCC(Nc2ncc(C(F)(F)F)c(O[C@H]3CCOC3)n2)CC1 [Compound 160] | 0.5 to 2.5 | 2.5 to 10 | 0.5 to 2.5
29 | C[C@@H]1CN(c2ccc(S(=O)(=O)N3CCC(Nc4ncc(C(F)(F)F)c(O[C@H]5CCOC5)n4)CC3)cc2)CCN1 [Compound 185] | < 0.5 | 0.5 to 2.5 | 0.5 to 2.5
30 | N#Cc1cnc(NC2CCN(S(=O)(=O)c3ccc(N4CCC(O)CC4)cc3)CC2)nc1NC1CCCC1 [Compound 107] | < 0.5 | 0.5 to 2.5 | 0.5 to 2.5
31 | Cn1cc(-c2ccc(S(=O)(=O)N3CCC(Nc4ncc(C#N)c(N[C@H]5CCC[C@H]5O)n4)CC3)cc2)cn1 [Compound 51] | 0.5 to 2.5 | 2.5 to 10 | 0.5 to 2.5
32 | Cn1cc(S(=O)(=O)N2CCC(Nc3ncc([N+](=O)[O-])c(NC4CCCC4)n3)CC2)cn1 [Compound 84] | 10 to 50 | 2.5 to 10 | 0.5 to 2.5
33 | O=S(=O)(c1ccc(C2CCCNC2)cc1)N1CCC(Nc2ncc(C(F)(F)F)c(O[C@H]3CCOC3)n2)CC1 (stereo partly drawn) [Example 113, N-(1-((4-(Piperidin-3-yl)phenyl)sulfonyl)piperidin-4-yl)-4-(((S)-tetrahydrofuran-3-yl)oxy)-5-(trifluoromethyl)pyrimidin-2-amine] | 0.5 to 2.5 | 0.5 to 2.5 | 0.5 to 2.5
34 | O=S(=O)(c1ccc(C2CCNC2)cc1)N1CCC(Nc2ncc(C(F)(F)F)c(O[C@H]3CCOC3)n2)CC1 (stereo partly drawn) [Compound 145] | < 0.5 | 0.5 to 2.5 | 0.5 to 2.5
35 | O=S(=O)(c1ccc(N2CCNC(C(F)(F)F)C2)nc1)N1CCC(Nc2ncc(C(F)(F)F)c(O[C@H]3CCOC3)n2)CC1 (stereo partly drawn) [Compound 167] | 0.5 to 2.5 | 0.5 to 2.5 | 0.5 to 2.5
36 | O=S(=O)(c1ccc(C23CCNCC2C3)cc1)N1CCC(Nc2ncc(C(F)(F)F)c(O[C@H]3CCOC3)n2)CC1 (stereo partly drawn) [Compound 159] | 0.5 to 2.5 | 0.5 to 2.5 | 0.5 to 2.5
37 | Cn1cc(-c2ccc(S(=O)(=O)N3CCC(Nc4ncc(C#N)c(N[C@@H]5CC[C@H](O)C5)n4)CC3)cc2)cn1 (single isomer, unassigned) [Compound 87] | 0.5 to 2.5 | 0.5 to 2.5 | 0.5 to 2.5
38 | O=S(=O)(c1ccc(N2CCNCC2)cn1)N1CCC(Nc2ncc(C(F)(F)F)c(O[C@H]3CCOC3)n2)CC1 [Compound 178] | < 0.5 | 0.5 to 2.5 | 0.5 to 2.5
